# Data from US6034087A, “Nucleoside derivatives and process for preparing thereof” (priority 1994, dated 2000).
# Columns and labels:
# HBV [1] = settings: literature report; cited from earlier work
# [2] = Cytotoxic Concentration in HepG2 2. 2. 15 cell line; assay type: cell-based; settings: human, hepg2 2.2.15 cells
# Protocol: (§1) Anti-HBV effect of 1-(5-hydroxymethyl-1,4-dioxan-2-yl)thymine, one of the desired product of the present invention prepared in Example 38, was tested in HepG2 2. 2. 15 cell line. The resultant Effective Concentration (Ec50, EC90), Cytotoxic Concentration (CC50) and Selectivity Index (SI) are shown in the Table below.
# HBV [3] = test: Anti-HBV effect in HepG2 2. 2. 15 cell line; assay type: cell-based, Hepatitis B Virus
# Protocol: as §1
SMILES,anti-HBV activity (in words) (HBV [1]),also measured
Nc1nc(=O)n(C2CCC(CO)O2)cc1F [2'3'-dideoxy-β-L-5-fluoro-cytidine],showing anti-HBV activity,–
"Nc1ccn([C@H]2CS[C@@H](CO)O2)c(=O)n1 [2',3'-dideoxy-3'-thiacytidine]",showing anti-HBV activity,–
"Nc1ccn(C2CCC(CO)O2)c(=O)n1 [2',3'-dideoxy-β-L-cytidine]",showing anti-HBV activity,–
"Nc1nc(=O)n([C@H]2CS[C@@H](CO)O2)cc1F [5-fluoro-2',3'-dideoxy-3'-thiacytidine]",showing anti-HBV activity,–
"Cc1cn(C2COC(CO)CO2)c(=O)[nH]c1=O (centres unmarked) [Compound of Ex.38, 1-(5-hydroxymethyl-1,4-dioxan-2-yl)thymine]",–,"CC50 [2]: 846 µg/mL; SI (CC50/EC50) (Selectivity Index) (HBV [3]; CC50/EC50): 188; EC50 (HBV [3]; Hepatitis B virus, HepG2 2.2.15, read-out: EC50 (Effective Concentration)): 4.5 µg/mL; EC90 (HBV [3]; Hepatitis B virus, HepG2 2.2.15, read-out: EC90 (Effective Concentration)): 15 µg/mL"
